Results on ten molecules are retold here after ChEMBL document CHEMBL1201862, “PubChem BioAssay data set” (2004).

Structures are written as SMILES.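 1) Cells in 96-well plates. 2) Compound, 48 h, 5 concentrations. 3) Linear interpolation between surrounding doses. 4) Unreached endpoint = highest concentration. At the GI50, growth is halved.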 The source made the active and inactive calls. Rule as the data show it: active = GI50 up to about 1.1 µM and inactive = higher.

Some test systems named below: M14; NCI-H522; SR; ACHN; NCI/ADR-RES; HL-60; COLO 205; BT-549; MOLT-4; SW-620; UACC-257; SK-MEL-2; RXF 393; U-251; NCI-H23; OVCAR-8; LOX IMVI; RPMI-8226; OVCAR-4; HOP-92.
What all share (assay): DTP human tumour cell line panel, 48 h

For the molecule `COc1ccc(NC(=O)CC(=O)n2nc(-c3ccccc3)c(/N=N/c3ccc(C)cc3)c2-c2ccccc2)cc1`, the GI50 – broadly, the concentration giving 50% growth inhibition – in the test on M14 was 52.6 µM (inactive); in the test with NCI-H522, 29 µM (inactive); with SR it was 47.2 µM (inactive); with ACHN, 32.5 µM (inactive); with NCI/ADR-RES it was 25.7 µM (inactive); in the test with HL-60, > 100 µM (inactive). Moreover, the GI50 in the test with COLO 205 was > 100 µM (inactive); in the test on BT-549, 21.2 µM (inactive); in the test on MOLT-4, > 95.9 µM (inactive); with SW-620 it was 69.5 µM (inactive); in the test with UACC-257, 57.8 µM (inactive); with SK-MEL-2, 32.7 µM (inactive). For the same molecule, the GI50 in the test on RXF 393 was 19.1 µM (inactive); with U-251, 20.8 µM (inactive); in the test with NCI-H23 it was 28.4 µM (inactive); in the test with OVCAR-8, 21.7 µM (inactive); with LOX IMVI, 38.8 µM (inactive); in the test with RPMI-8226, 55.7 µM (inactive). Further, the GI50 is 27.5 µM (inactive) in the test on OVCAR-4 and 16.8 µM (inactive) with HOP-92.

For the molecule `C1CNCCNCCN1`, the GI50 with M14, in the test on NCI-H522, in the test with SR, in the test with ACHN, in the test with NCI/ADR-RES and with HL-60 was > 100 µM (inactive) throughout. The GI50 with COLO 205, with BT-549, in the test on MOLT-4, with SW-620, in the test on UACC-257 and in the test on SK-MEL-2 was > 100 µM (inactive) each time. The GI50 with RXF 393, with U-251, in the test on NCI-H23, with OVCAR-8, in the test on LOX IMVI and in the test with RPMI-8226 was > 100 µM (inactive) throughout. The GI50 with OVCAR-4 and with HOP-92 was > 100 µM (inactive) each time.

As for `Cc1cc(-c2nc3cc(F)ccc3s2)ccc1NC(=O)C(C)N` (stereo not given), the GI50 is 4.93 µM (inactive) in the test on M14; 4.09 µM (inactive) with NCI-H522; 0.351 µM (active) in the test with SR; 3.73 µM (inactive) in the test on ACHN; 4.79 µM (inactive) in the test on NCI/ADR-RES; 0.249 µM (active) with HL-60. The GI50 is 9.23 µM (inactive) with COLO 205; 4.24 µM (inactive) in the test with BT-549; 3.33 µM (inactive) with MOLT-4; 4.62 µM (inactive) with SW-620; 4.31 µM (inactive) in the test on UACC-257; 4.11 µM (inactive) in the test with SK-MEL-2. For the same molecule, the GI50 in the test with RXF 393 is 3.75 µM (inactive); in the test with U-251, 4.36 µM (inactive); in the test with NCI-H23, 2.67 µM (inactive); in the test on OVCAR-8, 4.54 µM (inactive); with LOX IMVI, 4.42 µM (inactive); in the test with RPMI-8226, 5.89 µM (inactive). The values for the GI50 with OVCAR-4 and in the test on HOP-92 were 1.02 µM (active) and 3.97 µM (inactive), respectively.

For the molecule `O=c1c2cccnc2[nH]c2ccc3[nH]ncc3c12`, the GI50 is > 10 µM (inactive) in the test on M14; > 10 µM (inactive) with NCI-H522; > 10 µM (inactive) in the test on SR; 5.13 µM (inactive) in the test with ACHN; > 10 µM (inactive) with NCI/ADR-RES; > 10 µM (inactive) in the test on HL-60. Besides, the GI50 in the test with COLO 205, in the test with BT-549, in the test with MOLT-4, with SW-620, in the test on UACC-257 and with SK-MEL-2 was > 10 µM (inactive) in each case. Further, the GI50 in the test with RXF 393 was > 10 µM (inactive); in the test with U-251, > 10 µM (inactive); in the test on NCI-H23, > 10 µM (inactive); with OVCAR-8, > 10 µM (inactive); in the test with LOX IMVI, 2.91 µM (inactive); in the test with RPMI-8226, > 10 µM (inactive). For the same molecule, the GI50 in the test on OVCAR-4 and with HOP-92 was > 10 µM (inactive) throughout.

For `COc1ccc(OC)c(CSc2ccc(OC)c(OC)c2)c1`, the GI50 with M14 is > 100 µM (inactive); in the test on NCI-H522, > 90.2 µM (inactive); in the test on SR, > 100 µM (inactive); in the test with ACHN it was > 100 µM (inactive); in the test on NCI/ADR-RES it was > 70.8 µM (inactive); with HL-60, > 50.5 µM (inactive). Also, the GI50 in the test on COLO 205 is > 100 µM (inactive); in the test on BT-549, > 85.1 µM (inactive); in the test on MOLT-4, 43.2 µM (inactive); in the test on SW-620 it was > 100 µM (inactive); with UACC-257, > 83.4 µM (inactive); in the test with SK-MEL-2, 49.9 µM (inactive). The GI50 is > 100 µM (inactive) in the test on RXF 393; > 94.2 µM (inactive) with U-251; 82 µM (inactive) in the test on NCI-H23; > 95.3 µM (inactive) in the test on OVCAR-8; > 64.6 µM (inactive) in the test on LOX IMVI; > 84.7 µM (inactive) with RPMI-8226. The GI50 was 31.4 µM (inactive) in the test with OVCAR-4 and > 52.2 µM (inactive) in the test with HOP-92.

For the molecule `O=C(CCCCCCC(=O)Nc1cccnc1)NO` [PYROXAMIDE], the GI50 with M14 is 4.45 µM (inactive); with NCI-H522, 1.26 µM (inactive); with SR it was > 100 µM (inactive); in the test with ACHN, 15.7 µM (inactive); in the test with NCI/ADR-RES, 1.81 µM (inactive); in the test with HL-60 it was 10.2 µM (inactive). In addition, the GI50 in the test with COLO 205 was 2.77 µM (inactive); with BT-549, > 100 µM (inactive); with MOLT-4, 2.2 µM (inactive); in the test on SW-620, 3.4 µM (inactive); in the test with UACC-257 it was 4.75 µM (inactive); in the test with SK-MEL-2, 2.72 µM (inactive). Moreover, the GI50 in the test on RXF 393 was 5.89 µM (inactive); with U-251, 4.76 µM (inactive); with NCI-H23, 13 µM (inactive); with OVCAR-8, 1.78 µM (inactive); in the test with LOX IMVI it was 7.29 µM (inactive); in the test with RPMI-8226, 3.14 µM (inactive). For the same molecule, the GI50 in the test with OVCAR-4 was 10.4 µM (inactive); in the test with HOP-92, 12.8 µM (inactive).

Consider `CC12CP(=O)(O)CC1C2(Cl)Cl` (stereo not given), for which the GI50 in the test with M14, with NCI-H522, in the test on SR, in the test with ACHN, in the test with NCI/ADR-RES and in the test on HL-60 was > 100 µM (inactive) in each case. The GI50 in the test on COLO 205, in the test on BT-549, with MOLT-4, with SW-620, in the test with UACC-257 and in the test with SK-MEL-2 was > 100 µM (inactive) in each case. Besides, the GI50 with RXF 393, in the test with U-251, in the test on NCI-H23, in the test with OVCAR-8, in the test with LOX IMVI and with RPMI-8226 was > 100 µM (inactive) throughout. Further, the GI50 with OVCAR-4 and with HOP-92 was > 100 µM (inactive) throughout.

With `Nc1nc(=O)c2cc(NCc3ccc(C(=O)NC(CCC(=O)O)C(=O)O)cc3)ccc2[nH]1` (stereo not given), the GI50 with M14 is 20.8 µM (inactive); in the test with NCI-H522, > 100 µM (inactive); in the test on SR, 23.3 µM (inactive); in the test on ACHN, 4.31 µM (inactive); in the test with NCI/ADR-RES, > 100 µM (inactive); with HL-60, 21.4 µM (inactive). Moreover, the GI50 in the test on COLO 205, in the test with BT-549, in the test on MOLT-4, in the test on SW-620, in the test with UACC-257 and in the test on SK-MEL-2 was > 100 µM (inactive) throughout. The GI50 in the test on RXF 393 was > 100 µM (inactive); with U-251, > 100 µM (inactive); with NCI-H23, > 100 µM (inactive); with OVCAR-8, 68.2 µM (inactive); in the test with LOX IMVI it was 14.1 µM (inactive); in the test on RPMI-8226 it was > 100 µM (inactive). Besides, the GI50 with OVCAR-4 and with HOP-92 was > 100 µM (inactive) in each case.

With `COC1C(O)C(C)OC(OC2C(Oc3cccc4c(O)c5c(=O)oc6ccc(C)c7c(=O)oc(c34)c5c67)OC(C)C(O)C2O)C1O` (stereo not given), the GI50 was 4.13 µM (inactive) in the test on M14; 0.871 µM (active) with NCI-H522; 0.373 µM (active) in the test with SR; 4.98 µM (inactive) in the test with ACHN; 11.8 µM (inactive) in the test with NCI/ADR-RES; 2.38 µM (inactive) in the test on HL-60. Besides, the GI50 with COLO 205 is 3.41 µM (inactive); in the test with BT-549, 1.9 µM (inactive); in the test on MOLT-4, 0.488 µM (active); in the test with SW-620 it was 0.843 µM (active); in the test with UACC-257, 2.31 µM (inactive); in the test on SK-MEL-2, 1.03 µM (active). In addition, the GI50 is 1.34 µM (inactive) with RXF 393; 0.959 µM (active) in the test on U-251; 1.28 µM (inactive) in the test on NCI-H23; 1.15 µM (inactive) with OVCAR-8; 1.14 µM (inactive) in the test on LOX IMVI; 1.39 µM (inactive) in the test on RPMI-8226. In addition, the GI50 was 6.24 µM (inactive) in the test on OVCAR-4 and 0.233 µM (active) with HOP-92.

As for `O=C(COC(c1ccc(F)cc1)c1ccc(F)cc1)N1CCN(CCCc2ccccc2)CC1`, the GI50 with M14 is 4.32 µM (inactive); in the test on NCI-H522, 4.4 µM (inactive); in the test on SR, 3.54 µM (inactive); in the test on ACHN, 3.52 µM (inactive); in the test with NCI/ADR-RES, 2.72 µM (inactive); in the test with HL-60 it was 3.31 µM (inactive). Also, the GI50 in the test with COLO 205 is 1.79 µM (inactive); in the test on BT-549, 3.02 µM (inactive); in the test on MOLT-4, 4.66 µM (inactive); with SW-620 it was 5.15 µM (inactive); with UACC-257, 3.38 µM (inactive); in the test on SK-MEL-2, 3.87 µM (inactive). Moreover, the GI50 was 3.22 µM (inactive) with RXF 393; 4.16 µM (inactive) with U-251; 1.76 µM (inactive) in the test on NCI-H23; 3.54 µM (inactive) with OVCAR-8; 4.91 µM (inactive) in the test on LOX IMVI; 3.39 µM (inactive) in the test with RPMI-8226. Also, the GI50 is 3.24 µM (inactive) in the test with OVCAR-4 and 2.55 µM (inactive) in the test with HOP-92.
